Experimental data: patent publication US6645918B1, “N-([1,2,4]triazoloazinyl)thiophenesulfonamide compounds and their use as herbicides” (Dow AgroSciences LLC, priority 2000, dated 2003)

Key:
Format in all cases: in vivo
[1] = tested on: chickweed (Stellaria media); assay: Postemergence herbicidal activity, chickweed; settings: 15.6 ppm, foliar spray, visual after 2 weeks; 0 no injury, 100 complete kill
How it was run: (§1)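 Injury rated visually at 2 weeks, 0 (none) to 100% (complete kill), relative to carrier-sprayed controls. Foliar spray applied to 7–21-day-old seedlings at first or second true leaf, with rates in ppm (1 ppm ≈ 1 g/ha) in an aqueous acetone/DMSO/crop oil/surfactant mix.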

[2] = tested on: cocklebur (Xanthium strumarium); assay: Postemergence herbicidal activity, cocklebur; settings: 15.6 ppm, foliar spray, visual after 2 weeks; 0 no injury, 100 complete kill
How it was run: as §1

[3] = tested on: lambsquarters (Chenopodium album); assay: Postemergence herbicidal activity, lambsquarters; settings: 15.6 ppm, foliar spray, visual after 2 weeks; 0 no injury, 100 complete kill
How it was run: as §1

[4] = tested on: morningglory (Ipomoea hederacea); assay: Postemergence herbicidal activity, morningglory; settings: 15.6 ppm, foliar spray, visual after 2 weeks; 0 no injury, 100 complete kill
How it was run: as §1

[5] = tested on: pigweed (Amaranthus retroflexus); assay: Postemergence herbicidal activity, pigweed; settings: 15.6 ppm, foliar spray, visual after 2 weeks; 0 no injury, 100 complete kill
How it was run: as §1

[6] = tested on: velvetleaf (Abutilion theophrasti); assay: Postemergence herbicidal activity, velvetleaf; settings: 15.6 ppm, foliar spray, visual after 2 weeks; 0 no injury, 100 complete kill
How it was run: as §1

viola (Viola tricolor) = assay: Postemergence herbicidal activity, viola; settings: 15.6 ppm, foliar spray, visual after 2 weeks; 0 no injury, 100 complete kill
How it was run: as §1

[7] = tested on: wild buckwheat (Polygonum convolvulus); assay: Postemergence herbicidal activity, wild buckwheat; settings: 15.6 ppm, foliar spray, visual after 2 weeks; 0 no injury, 100 complete kill
Procedure: Seeds of the desired test plant species were planted in Grace-Sierra MetroMix® 306 planting mixture, which typically has a pH of 6.0 to 6.8 and an organic matter content of about 30 percent, in plastic pots with a surface area of 64 square centimeters. When required to ensure good germination and healthy plants, a fungicide treatment and/or other chemical or physical treatment was applied. The plants were grown for 7-21 days in a greenhouse with an approximately 15 hr photoperiod which was maintained at about 23-29° C. during the day and 22-28° C. during the night. Nutrients and water were added on a regular basis and supplemental lighting was provided with overhead metal halide 1000 Watt lamps as necessary. The plants were employed for testing when they reached the first or second true leaf stage. A weighed amount of each test compound, determined by the highest rate to be tested, was placed in a 20 mL glass vial and was dissolved in 4 mL of a 97:3 v/v (volume/volume) mixture of acetone and dimethyl sulfoxide to obtain concentrated stock solutions. […] The concentrated stock solutions obtained were diluted with an aqueous mixture containing acetone, water, iso-propyl alcohol, dimethyl sulfoxide, Atplus 411F crop oil concentrate, and Triton X-155 surfactant (methylenebisdiamyl phenoxy polyethoxy ethanol) in a 48.5:39:10:1.5:1.0:0.02 v/v ratio to obtain spray solutions of known concentration. The solutions containing the highest concentration to be tested were prepared by diluting 2 mL aliquots of the stock solution with 13 mL of the mixture and lower concentrations were prepared by dilution of appropriate smaller portions of the stock solution. Approximately 1.5 mL aliquots of each solution of known concentration were sprayed evenly onto each of the test plant pots using a DeVilbiss atomizer driven by compressed air pressure of 2 to 4 psi (140 to 280 kilopascals) to obtain thorough coverage of each plant. Control plants were sprayed in the same manner with the aqueous mixture. In this test an application rate of 1 ppm results in the application of approximately 1 g/ha. The treated plants and control plants were placed in a greenhouse as described above and watered by sub-irrigation to prevent wash-off of the test compounds. After 2 weeks the condition of the test plants as compared with that of the untreated plants was determined visually and scored on a scale of 0 to 100 percent where 0 corresponds to no injury and 100 corresponds to complete kill.

[8] = tested on: blackgrass (Alopecurus myosuroides); assay: Postemergence herbicidal activity, blackgrass; settings: 15.6 ppm, foliar spray, visual after 2 weeks; 0 no injury, 100 complete kill
How it was run: as §1

[9] = tested on: giant foxtail (Setaria faberi); assay: Postemergence herbicidal activity, giant foxtail; settings: 15.6 ppm, foliar spray, visual after 2 weeks; 0 no injury, 100 complete kill
How it was run: as §1

[10] = tested on: Rox orange sorghum (Sorghum bicolor); assay: Postemergence herbicidal activity, Rox orange sorghum; settings: 15.6 ppm, foliar spray, visual after 2 weeks; 0 no injury, 100 complete kill
How it was run: as §1

wild oats (Avena fatua) [11] = assay: Postemergence herbicidal activity, wild oats; settings: 15.6 ppm, foliar spray, visual after 2 weeks; 0 no injury, 100 complete kill
How it was run: as §1

[12] = tested on: cocklebur (Xanthium strumarium); assay: Preemergence herbicidal activity, cocklebur; settings: soil spray, visual after 3 weeks, 0 no injury, 100 complete kill or no germination
Procedure: The soil matrix was contained in plastic pots with a surface area of 161 square centimeters. When required to ensure good germination and healthy plants, a fungicide treatment and/or other chemical or physical treatment was applied. A weighed amount, determined by the highest rate to be tested, of each test compound was placed in a 20 mL glass vial and was dissolved in 8 mL of a 97:3 v/v (volume/volume) mixture of acetone and dimethyl sulfoxide to obtain concentrated stock solutions. […] The stock solutions obtained were diluted with a 99.9:0.1 mixture of water and Tween® 155 surfactant (ethoxylated sorbitan fatty acid ester) to obtain application solutions of known concentration. The solutions containing the highest concentration to be tested were prepared by diluting 4 mL aliquots of the stock solution with 8.5 mL of the mixture and lower concentrations were prepared by dilution of appropriate smaller portions of the stock solution. A 2.5 mL aliquot of each solution of known concentration was sprayed evenly onto the soil of each seeded pot using a Cornwall 5.0 mL glass syringe fitted with a TeeJet TN-3 hollow cone nozzle to obtain thorough coverage of the soil in each pot. Control pots were sprayed in the same manner with the aqueous mixture. A highest application rate of 4.48 kg/ha is achieved when 50 mg of test compound is employed. The treated pots and control pots were placed in a greenhouse with an approximately 15 hr photoperiod which was maintained at about 23-29° C. during the day and 22-28° C. during the night. Nutrients and water were added on a regular basis and supplemental lighting was provided with overhead metal halide 1000 Watt lamps as necessary. The water was added by top-irrigation. After 3 weeks the condition of the test plants that germinated and grew as compared with that of the untreated plants that germinated and grew was determined visually and scored on a scale of 0 to 100 percent where 0 corresponds to no injury and 100 corresponds to complete kill or no germination.

[13] = tested on: lambsquarters (Chenopodium album); assay: Preemergence herbicidal activity, lambsquarters; settings: soil spray, visual after 3 weeks, 0 no injury, 100 complete kill or no germination
How it was run: (§2)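 Visual rating 3 weeks after treatment, 0-100% injury versus untreated pots, where 100 means complete kill or no germination. Soil of seeded pots was sprayed preemergence with aqueous Tween 155 dilutions of acetone/DMSO stocks, up to 4.48 kg/ha. Plants were grown in a greenhouse at about 23-29 °C day/22-28 °C night with ~15 h light.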

[14] = tested on: morningglory (Ipomoea hederacea); assay: Preemergence herbicidal activity, morningglory; settings: soil spray, visual after 3 weeks, 0 no injury, 100 complete kill or no germination
How it was run: as §2

[15] = tested on: pigweed (Amaranthus retroflexus); assay: Preemergence herbicidal activity, pigweed; settings: soil spray, visual after 3 weeks, 0 no injury, 100 complete kill or no germination
How it was run: as §2

[16] = tested on: velvetleaf (Abutilion theophrasti); assay: Preemergence herbicidal activity, velvetleaf; settings: soil spray, visual after 3 weeks, 0 no injury, 100 complete kill or no germination
How it was run: as §2

[17] = tested on: wild poinsettia (Euphorbia heterophylla); assay: Preemergence herbicidal activity, wild poinsettia; settings: soil spray, visual after 3 weeks, 0 no injury, 100 complete kill or no germination
How it was run: as §2

[18] = tested on: blackgrass (Alopecurus myosuroides); assay: Preemergence herbicidal activity, blackgrass; settings: soil spray, visual after 3 weeks, 0 no injury, 100 complete kill or no germination
How it was run: as §2

[19] = tested on: barnyardgrass (Echinochloa crus-galli); assay: Preemergence herbicidal activity, barnyardgrass; settings: soil spray, visual after 3 weeks, 0 no injury, 100 complete kill or no germination
How it was run: as §2

[20] = tested on: crabgrass (Digitaria sanguinalis); assay: Preemergence herbicidal activity, crabgrass; settings: soil spray, visual after 3 weeks, 0 no injury, 100 complete kill or no germination
How it was run: as §2

[21] = tested on: giant foxtail (Setaria faberi); assay: Preemergence herbicidal activity, giant foxtail; settings: soil spray, visual after 3 weeks, 0 no injury, 100 complete kill or no germination
How it was run: as §2

[22] = tested on: Rox orange sorghum (Sorghum bicolor); assay: Preemergence herbicidal activity, Rox orange sorghum; settings: soil spray, visual after 3 weeks, 0 no injury, 100 complete kill or no germination
How it was run: as §2

wild oats (Avena fatua) [23] = assay: Preemergence herbicidal activity, wild oats; settings: soil spray, visual after 3 weeks, 0 no injury, 100 complete kill or no germination
How it was run: as §2

SMILES	STEME postemergence injury score 0-100 [1] [%]	XANST postemergence injury score 0-100 [2] [%]	CHEAL postemergence injury score 0-100 [3] [%]	IPOHE postemergence injury score 0-100 [4] [%]	AMARE postemergence injury score 0-100 [5] [%]	ABUTH postemergence injury score 0-100 [6] [%]	VIOTR postemergence injury score 0-100 (viola (Viola tricolor)) [%]	POLCO postemergence injury score 0-100 [7] [%]	ALOMY postemergence injury score 0-100 [8] [%]	SETFA postemergence injury score 0-100 [9] [%]	SORBI postemergence injury score 0-100 [10] [%]	AVEFA postemergence injury score 0-100 (wild oats (Avena fatua) [11]) [%]	also measured
CCOc1cscc1S(=O)(=O)Nc1nc2c(OC)ccc(OC)n2n1 [Compound 11]	80	90	95	70	100	85	75	80	75	100	90	85	XANST preemergence injury score 0-100 ([12]; 4.4 g/Ha): 50%; CHEAL preemergence injury score 0-100 ([13]; 4.4 g/Ha): 95%; IPOHE preemergence injury score 0-100 ([14]; 4.4 g/Ha): 30%; AMARE preemergence injury score 0-100 ([15]; 4.4 g/Ha): 90%; ABUTH preemergence injury score 0-100 ([16]; 4.4 g/Ha): 80%; EPHHL preemergence injury score 0-100 ([17]; 4.4 g/Ha): 50%; ALOMY preemergence injury score 0-100 ([18]; 4.4 g/Ha): 100%; ECHCG preemergence injury score 0-100 ([19]; 4.4 g/Ha): 10%; DIGSA preemergence injury score 0-100 ([20]; 4.4 g/Ha): 40%; SETFA preemergence injury score 0-100 ([21]; 4.4 g/Ha): 100%; SORBI preemergence injury score 0-100 ([22]; 4.4 g/Ha): 98%; AVEFA preemergence injury score 0-100 (wild oats (Avena fatua) [23]; 4.4 g/Ha): 70%
CCOc1cscc1S(=O)(=O)Nc1nc2nc(OC)cc(OC)n2n1 [Compound 12]	95	90	90	95	95	95	80	85	60	95	95	85	XANST preemergence injury score 0-100 ([12]; 8.8 g/Ha): 90%; CHEAL preemergence injury score 0-100 ([13]; 8.8 g/Ha): 100%; IPOHE preemergence injury score 0-100 ([14]; 8.8 g/Ha): 80%; AMARE preemergence injury score 0-100 ([15]; 8.8 g/Ha): 100%; ABUTH preemergence injury score 0-100 ([16]; 8.8 g/Ha): 90%; EPHHL preemergence injury score 0-100 ([17]; 8.8 g/Ha): 95%; ALOMY preemergence injury score 0-100 ([18]; 8.8 g/Ha): 100%; ECHCG preemergence injury score 0-100 ([19]; 8.8 g/Ha): 100%; DIGSA preemergence injury score 0-100 ([20]; 8.8 g/Ha): 100%; SETFA preemergence injury score 0-100 ([21]; 8.8 g/Ha): 100%; SORBI preemergence injury score 0-100 ([22]; 8.8 g/Ha): 100%; AVEFA preemergence injury score 0-100 (wild oats (Avena fatua) [23]; 8.8 g/Ha): 100%
